# Assay results as given in patent publication US20260102407A1, “TREATMENT METHODS” (priority 2020, published 2026).
# Several values for one entry are separate records, joined by “and”; a condition that tells them apart may be missing. Equal entries are not always repeated.
# Experiments:
# Balb/c mice = experiment: Toxicology, histopathology after intraperitoneal, intraarticular or gavage administration; conditions: for Eye (left and right), severity grade / Heart, severity grade / Kidney (left and right): inflammation, renal pelvis, severity grade / Liver: inflammation, peritoneal, severity grade / Liver: mineralisation, subcapsular, severity grade / Lung: osseous metaplasia, severity grade / Spleen, severity grade / Kidney (left and right): inflammation, interstitial, severity grade / Liver: inflammation, parenchymal, severity grade: Mouse 1-5
# Protocol: Toxicology. Female Balb/c mice (8-9 week-old) were given 3 or 30 mg/kg BT2 (DMSO vehicle) via intraperitoneal injection (Days 0 and 5 in DMSO), oral gavage (Days 0-4 in DMSO/methylcellulose) or intraarticular injection (Day 0 in DMSO). Mice were euthanized after 8-11 d. Tissues was fixed in 10% formalin, processed routinely, sectioned at 4 μm and stained with hematoxylin and eosin.
# VEGF-A165 = experiment: Immunohistochemical staining of rat retina, VEGF-A165; type: in vivo
# Excerpt: Rat choroidal laser injury model. Male Brown Norway pigmented rats (8-14 week-old) were anesthetized by an intramuscular injection of Rompun® (xylazine)/Imalgene® (ketamine). Pupils were dilated by instillation of one drop of 0.5% tropicamide before laser burn. Six burns were created in both eyes on Day 0 by applying 170 mW of 532 nm laser light (Viridis laser, Quantel, France) on 75 μm spots around the optic nerve, between the main retinal vessel branches, for 0.1s, through the slit lamp and contact lens. Production of a bubble at the time of laser application confirmed the rupture of Bruch's membrane. […] After anaesthesia, 10% sodium fluorescein (250 μl/100 g body weight) was injected subcutaneously, and ocular fluorescence was recorded 10 min after dye injection. Fluorescein leakage was evaluated on Days 14 and 21 in the angiograms by two examiners masked to the study groups and graded for fluorescein intensity as follows: score 0: no leakage; 1: slightly stained; 2: moderately stained; 3: strongly stained.
# Immunohistochemical staining of rat retina. […] IOD of positive staining (red chromogen) was assessed for CD31, VEGF-A165, pERK, FosB and VCAM-1 using Image-Pro Plus software (Cybernetics, Bethesda, MD). IOD in IPL and INL was quantified for CD31; OPL to OS for VEGF-A165; INL to ONL for pERK; GCL to OS for FosB; OLM for VCAM-1, using Image-Pro Plus. […]
# [1] = tested on: THP-1 transendothelial migration; experiment: Monocyte-transendothelial migration assay toward MCP-1; type: cell-based, human; conditions: HMEC; 20 ng/ml IL-1β; 24 h
# Protocol: Monocyte-transendothelial migration assay. Millicell 8 μm polycarbonated culture plate inserts (Millipore) were coated with 0.1% porcine gelatin type A (Sigma) and then placed into 24-well plates. HMEC (5×10^4 cells/well) were seeded onto the insert and allowed to adhere overnight. Cells were then serum deprived for 24 h and treated with various compound treatments for 1 h. IL-1β (20 ng/ml) was added to stimulate the cells for 4 h and 500 μl of serum-free medium was added to the bottom of the 24-well plate along with the compound. THP-1 (5×10^5 cells in 100 μl) were added into the insert and 100 ng/ml MCP-1 (Sigma) was added to the lower well. After 24 h, the number of cells that had migrated though the endothelial layer was assessed by counting 100 μl of the suspension in the lower chamber using a Coulter cell counter (Beckman Coulter).
# [2] = Gavage BT2 3 mg/kg (Days 0-4), 3 mg/kg
# [3] = IA BT2 3 mg/kg (Day 0), 3 mg/kg
# [4] = IP BT2 3 mg/kg (Days 0 and 5), 3 mg/kg
# [5] = IP BT2 30 mg/kg (Days 0 and 5), 30 mg/kg
structure (smiles),measurement,setting,value
"CCOC(=O)Nc1ccc2c(c1)C(=O)N(CC)c1ccccc1O2 [BT2, (10-ethyl-11-oxo-10,11-dihydro-dibenzo[b,f][1,4]oxazepin-2-yl)-carbamic acid ethyl ester]",histopathological evidence of toxicity,"Balb/c mice; Balb/c mice, 3 or 30 mg/kg, intraperitoneal, intraarticular or oral gavage",no histopathological evidence of toxic damage
same,treated mice whose kidneys contained infrequent inflammatory foci,"Balb/c mice; Balb/c mice, all BT2 groups, control one of 5",4 of 30
same,"Eye (left and right), severity grade",Balb/c mice; Gavage BT2 3 mg/kg (Days 0-4),0
same,"Heart, severity grade",Balb/c mice; Gavage BT2 3 mg/kg (Days 0-4),0
same,"Kidney (left and right): inflammation, renal pelvis, severity grade",Balb/c mice; Gavage BT2 3 mg/kg (Days 0-4),0
same,"Liver: inflammation, peritoneal, severity grade",Balb/c mice; Gavage BT2 3 mg/kg (Days 0-4),0
same,"Liver: mineralisation, subcapsular, severity grade",Balb/c mice; Gavage BT2 3 mg/kg (Days 0-4),0
same,"Lung: osseous metaplasia, severity grade",Balb/c mice; Gavage BT2 3 mg/kg (Days 0-4),0
same,"Spleen, severity grade",Balb/c mice; Gavage BT2 3 mg/kg (Days 0-4),0
same,"Kidney (left and right): inflammation, interstitial, severity grade",Balb/c mice; [2],0 and 1
same,"Liver: inflammation, parenchymal, severity grade",Balb/c mice; [2],0 and 1
same,"Eye (left and right), severity grade",Balb/c mice; Gavage BT2 30 mg/kg (Days 0-4),0
same,"Heart, severity grade",Balb/c mice; Gavage BT2 30 mg/kg (Days 0-4),0
same,"Kidney (left and right): inflammation, interstitial, severity grade",Balb/c mice; Gavage BT2 30 mg/kg (Days 0-4),0
same,"Kidney (left and right): inflammation, renal pelvis, severity grade",Balb/c mice; Gavage BT2 30 mg/kg (Days 0-4),0
same,"Liver: inflammation, peritoneal, severity grade",Balb/c mice; Gavage BT2 30 mg/kg (Days 0-4),0
same,"Liver: mineralisation, subcapsular, severity grade",Balb/c mice; Gavage BT2 30 mg/kg (Days 0-4),0
same,"Lung: osseous metaplasia, severity grade",Balb/c mice; Gavage BT2 30 mg/kg (Days 0-4),0
same,"Spleen, severity grade",Balb/c mice; Gavage BT2 30 mg/kg (Days 0-4),0
same,"Liver: inflammation, parenchymal, severity grade","Balb/c mice; Gavage BT2 30 mg/kg (Days 0-4), 30 mg/kg",1 and 0
same,"Eye (left and right), severity grade",Balb/c mice; IA BT2 3 mg/kg (Day 0),0
same,"Heart, severity grade",Balb/c mice; IA BT2 3 mg/kg (Day 0),0
same,"Liver: inflammation, peritoneal, severity grade",Balb/c mice; IA BT2 3 mg/kg (Day 0),0
same,"Liver: mineralisation, subcapsular, severity grade",Balb/c mice; IA BT2 3 mg/kg (Day 0),0
same,"Lung: osseous metaplasia, severity grade",Balb/c mice; IA BT2 3 mg/kg (Day 0),0
same,"Spleen, severity grade",Balb/c mice; IA BT2 3 mg/kg (Day 0),0
same,"Kidney (left and right): inflammation, interstitial, severity grade",Balb/c mice; [3],0 and 1
same,"Kidney (left and right): inflammation, renal pelvis, severity grade",Balb/c mice; [3],2 and 0
same,"Liver: inflammation, parenchymal, severity grade",Balb/c mice; [3],1 and 0
same,"Eye (left and right), severity grade",Balb/c mice; IA BT2 30 mg/kg (Day 0),0
same,"Heart, severity grade",Balb/c mice; IA BT2 30 mg/kg (Day 0),0
same,"Kidney (left and right): inflammation, interstitial, severity grade",Balb/c mice; IA BT2 30 mg/kg (Day 0),0
same,"Kidney (left and right): inflammation, renal pelvis, severity grade",Balb/c mice; IA BT2 30 mg/kg (Day 0),0
same,"Liver: inflammation, parenchymal, severity grade",Balb/c mice; IA BT2 30 mg/kg (Day 0),1
same,"Liver: inflammation, peritoneal, severity grade",Balb/c mice; IA BT2 30 mg/kg (Day 0),0
same,"Liver: mineralisation, subcapsular, severity grade",Balb/c mice; IA BT2 30 mg/kg (Day 0),0
same,"Lung: osseous metaplasia, severity grade",Balb/c mice; IA BT2 30 mg/kg (Day 0),0
same,"Spleen, severity grade",Balb/c mice; IA BT2 30 mg/kg (Day 0),0
same,"Eye (left and right), severity grade",Balb/c mice; IP BT2 3 mg/kg (Days 0 and 5),0
same,"Heart, severity grade",Balb/c mice; IP BT2 3 mg/kg (Days 0 and 5),0
same,"Kidney (left and right): inflammation, interstitial, severity grade",Balb/c mice; IP BT2 3 mg/kg (Days 0 and 5),0
same,"Kidney (left and right): inflammation, renal pelvis, severity grade",Balb/c mice; IP BT2 3 mg/kg (Days 0 and 5),0
same,"Liver: mineralisation, subcapsular, severity grade",Balb/c mice; IP BT2 3 mg/kg (Days 0 and 5),0
same,"Spleen, severity grade",Balb/c mice; IP BT2 3 mg/kg (Days 0 and 5),0
same,"Liver: inflammation, parenchymal, severity grade",Balb/c mice; [4],1 and 0
same,"Liver: inflammation, peritoneal, severity grade",Balb/c mice; [4],0 and 2 and 1
same,"Lung: osseous metaplasia, severity grade",Balb/c mice; [4],0 and 1
same,"Eye (left and right), severity grade",Balb/c mice; IP BT2 30 mg/kg (Days 0 and 5),0
same,"Heart, severity grade",Balb/c mice; IP BT2 30 mg/kg (Days 0 and 5),0
same,"Kidney (left and right): inflammation, interstitial, severity grade",Balb/c mice; IP BT2 30 mg/kg (Days 0 and 5),0
same,"Lung: osseous metaplasia, severity grade",Balb/c mice; IP BT2 30 mg/kg (Days 0 and 5),0
same,"Spleen, severity grade",Balb/c mice; IP BT2 30 mg/kg (Days 0 and 5),0
same,"Kidney (left and right): inflammation, renal pelvis, severity grade",Balb/c mice; [5],0 and 4
same,"Liver: inflammation, parenchymal, severity grade",Balb/c mice; [5],1 and 2
same,"Liver: inflammation, peritoneal, severity grade",Balb/c mice; [5],1 and 2
same,"Liver: mineralisation, subcapsular, severity grade",Balb/c mice; [5],0 and 1
same,inducible expression of VEGF-A165 in retina,VEGF-A165; lasered rat eyes 21 days after injury,inhibited the inducible expression of VEGF-A165
same,VEGF-A165 staining gradient relative to the wound,"VEGF-A165; lasered rat eyes, 100 μm boxed increments",inhibited by BT2
same,transendothelial migration of THP-1 monocytes toward MCP-1,[1],inhibits the transendothelial migration
